# Results from PMC12256496, “An advancement in developmental and reproductive toxicity (DART) risk assessment: evaluation of a bioactivity and exposure-based NAM toolbox” (Frontiers in Toxicology, 2025).
# Where two headings read alike, the source gives them in different places. Peptide text beside a SMILES is read from it.
# What was measured:
# [1] = test system: developmental or reproductive toxicity in animal or human; details: evidence of developmental or reproductive toxicity in animal or human, irrespective of exposure/dose; ref Supplementary Data Sheet 1; cited from earlier work
# [2] = cited from earlier work
# [3] = set-up: method as in earlier work; details: ref [3]; cited from earlier work
# [4] = cited from earlier work; for MoS: existent consumer risk assessment for the cosmetic use scenario, ref SCCS / SCCP / SCCNFP
# [5] = cited from earlier work; remark: listed apart in the source
# [6] = test system: human developmental and reproductive toxicity; details: ref Supplementary Data Sheet 1, cited from earlier work
# [7] = ref Supplementary Data Sheet 1, cited from earlier work
# [8] = renal clearance, Fup*GFR (PBK parameter); details: method Fup*GFR
# [9] = test system: rats; details: ref Supplementary Data Sheet 1, cited from earlier work
# [10] = hepatic intrinsic clearance, CLint (PBK parameter); format: in vitro ADME
# [11] = ref PubChem; cited from earlier work
# [12] = test system: thyroid peroxidase (TPO); assay: IPP: thyroid peroxidase (TPO) binding; details: low-risk exposure scenario
# From the text: (§1) In vitro pharmacological profiling is used to measure specific and high affinity non-covalent binding interactions between chemicals of interest and various targets with known safety liabilities. These targets include G protein coupled receptors (GPCRs), nuclear hormone receptors (NHRs), ion channels and enzymes. For this evaluation we included 72 targets of interest a full list of which is available in Supplementary Data Sheet 5, across a range of radioligand binding, enzymatic and protein-protein interaction assays run in binding mode only.
# (§2) The process for deriving a PoD for each of the 72 targets consisted of a two-step method that has been widely adopted when conducting in vitro pharmacological profiling experiments ([Brennan et al., 2024]). […] Targets showing an inhibition or stimulation greater than 50% of a maximal response produced by a reference compound are followed up in a second phase which includes an eight-point concentration response (in two replicates). […] EC50 values (concentration producing a half-maximal response) and IC50 values (concentration causing a half-maximal inhibition of the control agonist response) were determined by the Bayesian probabilistic model of the concentration-response curves and the Hill equation as per ([Labelle et al., 2019]). […] Calculated IC50s were taken forwards as the IPP PoDs ([Middleton et al., 2022]). […]
# [13] = unbound fraction in plasma, fup (PBK parameter); format: in vitro ADME; details: optimised based on [13]
# [14] = Human in vivo PK data: concentration-dose ratio (CDR) and toxicokinetic variability factor (TKVF);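 note: Literature-pooled human in vivo PK data, plasma, serum or cord blood concentrations per daily dose, weighted by study population size across non-pregnant, pregnant and fetal groups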
# [15] = water solubility (PBK parameter); format: physicochemical; details: Solubility pH 6.99, optimised based on [13], read-out: Aqueous Solubility
# [16] = test system: serotonin receptor HTR2B; assay: IPP: serotonin receptor HTR2B binding; details: low-risk exposure scenario
# From the text: as §1, §2
# [17] = human
# [18] = test system: mice; set-up: method as in Supplementary Data Sheet 1; details: ref Supplementary Data Sheet 1, cited from earlier work
# [19] = test system: pigtail monkeys; set-up: method as in Supplementary Data Sheet 1; details: the only dose tested, ref Supplementary Data Sheet 1; cited from earlier work
# [20] = Bioactivity exposure ratio (BER): minimum platform PoD / estimated Cmax; details: low-risk scenario of normal dietary exposure to retinol and its metabolite
# [21] = test system: hamsters; set-up: method as in Supplementary Data Sheet 1; details: ref Supplementary Data Sheet 1; cited from earlier work
smiles,measurement,setting,value
Nc1cc([N+](=O)[O-])cc(Cl)c1O [2-Amino-6-chloro-4-nitrophenol],DART Hazard Call,[1],Non Toxic
same,Aqueous Solubility,"[2]; Solubility pH 5.04, ref [1]",450 mg/mL
same,Peff,[3],7.96 cm/s x E-04
same,MoS,[4],Used safely in cosmetic products. Existent consumer risk assessment from the SCCP. MoS >400.
same,Fup,[5]; ref [2],0.47%
same,Exposure risk (DART risk classification),"[6]; Cosmetic, 2% in hair colourant, dermal",Low Risk
same,NOAEL for maternal toxicity,[7],30 mg/kg bw
same,Renal Clearance,[8],0.034 L/h
"CCCCC(CC)C(=O)O (centres unmarked) [2-Ethylhexanoic acid (2-EHA), 2-Ethylhexanoic acid]",developmental NOAEL,"[9]; 2 rat studies, clubfoot/reduced skeletal ossification",100 mg/kg bw/day
same,NOAEL for parental effects,[9]; EOGRT in rats,250 mg/kg bw/d
same,Intrinsic Liver Clearance,[10]; optimised based on [16],7.128 L/h
same,Renal Clearance,[8],0.008 L/h
same,pKa Value ACID,[11],4.8
Cc1c(O)cccc1O [2-Methylresorcinol],DART Hazard Call,[1],Non Toxic
same,Aqueous Solubility,"[2]; Solubility pH 4.91, ref [7]",263 mg/mL
same,MoS,[4],Used safely in cosmetic products. Existent consumer risk assessment from the SCCS. MoS >4000.
same,Exposure risk (DART risk classification),"[6]; Cosmetic, […] in hair colourant, dermal",Low Risk
same,BER from thyroid peroxidase (TPO) binding,[12],< 1
same,Renal Clearance,[8],4.792 L/h
COC(=O)[C@H](Cc1ccccc1)NC(=O)[C@@H](N)CC(=O)O [Aspartame] (H-Asp-Phe-OMe),Aqueous Solubility,"[2]; Solubility pH 2.2, ref [4]",20 mg/mL
same,ADI,"[4]; ref FSCJ, EFSA, SCF, JMPR as named in the cell",ADI set by EFSA (40 mg/kg/day)
same,Fup,[5]; ref [6],83.8%
same,Exposure risk (DART risk classification),"[6]; Dietary, 2,400 mg/daily, oral",Low Risk
same,Intrinsic Liver Clearance,[10]; scaled from [6],400.2 L/h
same,Renal Clearance,[8],6.049 L/h
"Cc1cc(C(C)(C)C)c(O)c(C(C)(C)C)c1 [Butylated hydroxytoluene (BHT), Butylated hydroxytoluene]",Fup,[13],0.33%
same,TKVF,"[14]; Non-Pregnant, oral",2.5
same,MoS,[4],Used safely in cosmetic products. Existent consumer risk assessment from the SCCS. MoS >3000.
same,Intrinsic Liver Clearance,[10]; optimised based on [13],22540.4 L/h
same,offspring NOAEL,"[7]; OECD 416, effects on litter size, sex ratio and pup body weight gain","OECD 416: 0, ~25, ~100 and ~280 mg/kg/day. Effects on offspring. Offspring NOAEL of 25 mg/kg bw/day based on effects on litter size, sex ratio and pup body weight gain."
same,solubility,[15],0.005 mg/mL
same,Renal Clearance,[8],0.02382 L/h
"CCOC(=O)c1ccccc1C(=O)OCC [Diethyl phthalate (DEP), Diethyl phthalate]",BER from binding to the serotonin receptor HTR2B,[16],< 1
same,MoS,[4],Used safely in cosmetic products. Existent safety assessment from the SCCNFP. MoS 161
CCOC(=O)c1ccccc1C(=O)OCC [Diethyl phthalate],Fup,[5]; ref [19],19%
same,Intrinsic Liver Clearance,[10],596.6 L/h
same,Renal Clearance,[17],1.371 L/h
O=C1CN(/N=C/c2ccc([N+](=O)[O-])o2)C(=O)N1 [Nitrofurantoin],DART Hazard Call,[1],Uncertain
same,CDR fold difference to non-pregnant,"[14]; female, human, in vivo",1.29
same,CDR fold difference to pregnant,"[14]; female, human, in vivo",1.00
same,TKVF,"[14]; female, human, in vivo",5.73
same,CDR fold difference to pregnant,"[14]; human, in vivo",1.74
same,95% percentile (Conc-dose-ratio),"[14]; human, in vivo, po",0.11
same,Fold Difference to non-pregnant,"[14]; human, in vivo, po",1.00
same,Mean Conc-dose -ratio,"[14]; human, in vivo, po",0.033 uM/(mg/day]
same,TKVF,"[14]; human, in vivo, po",3.36
same,Exposure risk (DART risk classification),"[6]; Pharmaceutical, 200 mg/daily, oral",High Risk
same,multiple of human dose with growth retardation and low incidence of minor and common malformations,[18]; based on mg/kg administered to the dam,68 times
same,multiple of human dose at which fetal malformations were not observed,[18],25 times
"CC1=C(/C=C/C(C)=C/C=C/C(C)=C/C(=O)O)C(C)(C)CCC1 [all-trans-retinoic acid (ATRA), all-trans-retinoic acid]",DART Hazard Call,[1],Toxic
same,CDR fold difference to non-pregnant,"[14]; female, human, in vivo",0.77
same,CDR fold difference to pregnant,"[14]; female, human, in vivo",1.00
same,TKVF,"[14]; female, human, in vivo",1.47
same,CDR fold difference to pregnant,"[14]; human, in vivo",0.71
same,"dose above which gross external, soft tissue and skeletal alterations occurred",[9]; rats,> 2 mg/kg/day
same,"dose at which gross external, soft tissue and skeletal alterations occurred",[19],10 mg/kg/day
same,Exposure risk (DART risk classification),"[6]; Dietary, <10,000 IU Retinol, oral",Low Risk
same,Exposure risk (DART risk classification),"[6]; Pharmaceutical, 80 mg/daily, oral",High Risk
same,Exposure risk (DART risk classification),"[6]; Pharmaceutical, 0.1% cream, dermal",Uncertain Risk
same,"dose above which gross external, soft tissue and skeletal alterations occurred",[18],> 0.7 mg/kg/day
same,BER,[20],< 1
same,"dose above which gross external, soft tissue and skeletal alterations occurred",[21],> 7 mg/kg/day
